Test results from article PMC9993459, “A novel selective spleen tyrosine kinase inhibitor SKI-O-703 (cevidoplenib) ameliorates lupus nephritis and serum-induced arthritis in murine models” (Clinical and Experimental Immunology, 2022).

What was measured:
[1] = target: T1, phosphorylated Syk (p-Syk) in human CD14+ monocytes (Homo sapiens, UniProt P43405); assay: p-Syk ELISA in IgG-stimulated human CD14+ monocytes (FcγR signal); type: cell-based
T1 construct: endogenous in cells; host or cells: Ramos (ATCC), THP-1 (ATCC), human CD14+ monocytes (Lonza)
Experimental: THP-1 and Ramos cell lines and human CD14^+ monocytes were purchased from the American Type Culture Collection (ATCC) and Lonza, respectively. After treatment with Syk inhibitors for 1 h, THP-1 cells and monocytes were stimulated for 15 min with 100 μg/ml human IgG (Invitrogen), and Ramos cells were stimulated with 2 μg/ml anti-human IgM monoclonal Ab (mAb) (Bathyl). Cells were lysed in RIPA buffer containing 1% NP-40, 1% sodium deoxycholate, 0.1% SDS, and a mixture of protease and phosphatase inhibitors (Thermo Scientific). The lysates were assayed by standard immunoblotting methods and ELISA. Primary Abs used for immunoblotting were anti-phospho-Syk ([…]), anti-phospho-Vav (Y174), anti-phospho-PLCγ1 (Y1217) and anti-phospho-BLNK (Y96) Abs (all from Cell Signaling). ELISAs to detect phospho-Syk (Y525/526) were performed according to the manufacturer’s protocol (Cell Signaling).
Ramos cells (A), human primary monocytes (B), and THP cells (C) were pretreated with inhibitors at the indicated concentrations and stimulated with anti-human IgM (A) and human IgG (B and C). […] The relative intensities of protein phosphorylation levels were quantitated with reference to each lane of β-actin control bands. (D) Ramos cells, human primary monocytes, and THP cells were treated as in A–C for 24 h and levels of phosphorylated Syk (p-Syk) were measured by ELISA.

[2] = target: Jak2 (Homo sapiens, UniProt O60674); assay: Kinase assay (LANCE Ultra TR-FRET), Jak2; type: biochemical
Experimental: Kinase assays were conducted in 384-well plates using LANCE ultra 66 time-resolved fluorescence resonance energy transfer (TR-FRET) methods, according to the manufacturer’s instructions (Perkin-Elmer). In brief, each kinase was pre-incubated with a serially diluted compound for 30 min, incubated with ULight poly-GT peptide substrate and ATP for up to 1 h. Thirty minutes after adding Eu-labeled anti-phosphopeptides Ab diluted in LANCE Detection Buffer, LANCE signals were measured with an EnVision multilabel reader (Perkin-Elmer).

[3] = test system: NZB/W F1 mice; assay: NZB/W mouse model of SLE / lupus nephritis, oral dosing; type: in vivo
Experimental: NZB/W female mice aged 18 weeks were assigned to four groups by distributing mice by body weight and anti-dsDNA IgG titer equivalently across the groups. Each group of mice was administered orally with 42 mg per kg body weight (mpk) of SKI-O-703 dissolved in 50 mM citric acid, 84 mpk of SKI-O-703, 30 mpk of tofacitinib (Selleckchem) dissolved in 0.5% carboxymethyl cellulose (Sigma Aldrich) containing 0.025% Tween 20, or a mixture of the two vehicles. The drugs were given once daily up to 34 weeks of age. Body weight was measured every 2 weeks and serum was collected every 4 weeks. At the termination of the experiments (34 weeks of age), serum, urine, spleen, BM, and kidneys were removed post mortem and assayed by histopathological and biochemical methods as below. Levels of blood urea nitrogen (BUN) and creatinine were measured by Knotus (Incheon, Korea).
Kidneys removed from the NZB/W mice were fixed in 4% paraformaldehyde, embedded in paraffin, sectioned at 3 μm thickness, and stained with periodic acid-Schiff (PAS) and hematoxylin (Sigma Aldrich). […] Glomerular size was measured using Image J software. To assess the glomerular size and hypercellularity of each mouse, more than 20 glomeruli per mouse were individually examined and averaged.
Kidneys and spleens of NZB/W mice were embedded in OCT compound (Sakura Finetek, Torrance, CA, USA) and snap-frozen in liquid nitrogen. Frozen sections were fixed in acetone and blocked with 10% normal donkey serum (Sigma Aldrich). Kidney sections were stained with a 1:200 dilution of anti-IgG-biotin (Sigma Aldrich), anti-IgM-biotin (Southern Biotech) and anti-C3-biotin (Bioss), followed by reaction with 1:200-dilution of streptavidin-cy3 (Invitrogen). Spleen sections were stained with anti-GL7-FITC, anti-CD4-APC, and anti-IgD-PE (all from BD Biosciences or eBioscience). Fluorescence images were acquired using a TCS SP5 confocal microscope (Leica). The area of GCs composed with GL7^+ cells per image was calculated using ImageJ software (NIH, Bethesda, MD, USA).
Titers of anti-dsDNA IgG Ab were measured by ELISA, as described previously. In brief, sera were diluted 1/10 000 to 1/50 000 in PBS and applied to immunosorbent plates (Nunc) precoated with 5 μg/ml poly-L-lysine and 5 μg/ml thymic DNA (Sigma Aldrich). The serum containing the highest titer of anti-dsDNA IgG was serially diluted and used as standard. The plates were incubated with anti-mouse IgG-biotin (Sigma Aldrich) and streptavidin-HRP (BD Biosciences). The concentration of albumin in urine was measured by quantitative ELISA using a mouse albumin ELISA kit (Bethyl), according to the manufacturer’s instructions. The concentration of serum B-cell activating factor of the TNF family (BAFF) was quantitated using a BAFF/BLys/TNFSF13B ELISA Kit (R&D Systems).
Single-cell suspensions of spleen and LN cells were prepared as previously described. Joint tissues from hind paws of KSTA mice were dissected free of soft tissue and bones, digested with 100 μg/ml Liberase (Roche) for 45 min at 37 °C, and filtered through a 70-μm-pore cell strainer (SPL Life Sciences) to prepare single cell suspensions of synovial infiltrates. The single cell suspensions were stained with an appropriate combination of mAbs and analyzed by FACS. The mAbs used were: CD138-PE, B220-PerCP or -APC-cy7, FAS-PE, CD19-PerCP or -APC, CD21-FITC or -APC, CD43-APC, CD23-PE-cy7, CD8a-PE, CD25-APC-cy7, CXCR5-biotin, GL7-FITC, CD45.2-FITC, CD27-FITC, Ki-67-FITC, Gr-1-FITC, CD4-FITC or -APC-cy7, phospho-Syk-PE, CD11b-PE or -PerCP, PD-1-APC, CD44-APC-cy7, and F4/80-PerCP mAbs (all from BD Biosciences, eBioscience or Biolegend). Streptavidin-PerCP was purchased from BD Biosciences.
Splenic CD19^+ B cells from NZB/W mice were sorted by MACS, and lysed with Trizol reagent (Invitrogen) followed by standard methods of total RNA purification. The RNA was assayed by RT and quantitative PCR as described. […]

[4] = 84 mpk oral once daily, 18-34 weeks of age
[5] = high dose (84 mpk), 34 weeks, FACS

Sequence of Jak2 (O60674 whole entry, species assumed): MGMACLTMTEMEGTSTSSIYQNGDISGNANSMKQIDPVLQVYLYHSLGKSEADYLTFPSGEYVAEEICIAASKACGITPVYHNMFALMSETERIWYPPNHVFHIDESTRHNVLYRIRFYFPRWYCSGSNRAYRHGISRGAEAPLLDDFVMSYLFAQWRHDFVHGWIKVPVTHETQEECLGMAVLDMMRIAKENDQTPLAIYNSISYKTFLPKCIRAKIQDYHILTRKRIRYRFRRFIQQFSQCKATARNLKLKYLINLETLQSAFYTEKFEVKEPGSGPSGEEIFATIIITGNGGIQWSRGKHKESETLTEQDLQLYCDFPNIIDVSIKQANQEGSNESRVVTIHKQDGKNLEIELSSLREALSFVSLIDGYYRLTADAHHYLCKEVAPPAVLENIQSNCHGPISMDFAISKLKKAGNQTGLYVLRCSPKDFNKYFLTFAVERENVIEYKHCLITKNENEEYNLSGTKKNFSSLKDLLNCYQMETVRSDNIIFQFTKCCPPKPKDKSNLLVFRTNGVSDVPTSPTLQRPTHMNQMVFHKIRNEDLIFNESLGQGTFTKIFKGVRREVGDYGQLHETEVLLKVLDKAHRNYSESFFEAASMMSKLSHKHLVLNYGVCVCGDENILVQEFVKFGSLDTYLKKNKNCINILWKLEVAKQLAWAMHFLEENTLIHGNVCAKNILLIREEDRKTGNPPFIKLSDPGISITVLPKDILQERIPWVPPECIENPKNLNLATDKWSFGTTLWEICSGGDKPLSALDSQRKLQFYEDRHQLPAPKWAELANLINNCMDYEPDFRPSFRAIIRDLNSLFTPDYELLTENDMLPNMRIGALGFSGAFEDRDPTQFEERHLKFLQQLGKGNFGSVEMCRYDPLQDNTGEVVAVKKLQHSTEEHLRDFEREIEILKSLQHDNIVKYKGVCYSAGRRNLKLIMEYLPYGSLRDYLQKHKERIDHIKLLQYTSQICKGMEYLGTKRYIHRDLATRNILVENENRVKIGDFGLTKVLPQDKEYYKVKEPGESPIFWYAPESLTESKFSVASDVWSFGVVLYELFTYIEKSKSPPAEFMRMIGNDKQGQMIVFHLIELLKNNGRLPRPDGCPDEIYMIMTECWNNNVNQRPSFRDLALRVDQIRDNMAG

SMILES | IC50 [1] | Ratio to Syk (Jak2) ([2]; IC50 ratio to Syk) | IC50 ([2]; kinase activity, TR-FRET) | Concentrations of BUN and creatinine ([3]; 42 mpk (low-dose), 34 weeks of age) | Rise of serum anti-dsDNA IgG Ab level ([3]; 42 mpk oral once daily) | Glomerular IgM and C3 staining intensities ([3]; 84 mpk (high dose)) | Concentrations of BUN and creatinine ([3]; 84 mpk (high-dose), 34 weeks of age) | Body weights [3, 4] | Spleen weights [3, 4] | Rise of serum anti-dsDNA IgG Ab level ([3]; 84 mpk oral once daily, P < 0.01 by two-way ANOVA) | Concentration of urinary albumin ([3]; 84 mpk, 34 weeks of age, vehicle mean 742.9 mg/dl) | Number of splenic T cells [3, 5] | Total spleen cells [3, 5] | CXCR5+PD-1+ Tfh cells ([3]; high dose (84 mpk), spleen) | Splenic follicular, GC B cells and plasma cells ([3]; high dose (84 mpk), vs vehicle controls) | Level of serum BAFF ([3]; high dose, ELISA) | BAFF receptor expression in splenic B cells ([3]; high dose, quantitative RT-PCR) | BM hematopoiesis ([3]; long-term treatment (16 weeks))
Cc1nn(-c2ccnc(Nc3ccc4c(c3)c(C(=O)C3CC3)cn4C)n2)cc1CN1C[C@H](O)CO1 [SKI-O-592] | 191 nM | 302 | 1860 nM |  |  |  |  |  |  |  |  |  |  |  |  |  |  | 
CS(=O)(=O)O.CS(=O)(=O)O.Cc1nn(-c2ccnc(Nc3ccc4c(c3)c(C(=O)C3CC3)cn4C)n2)cc1CN1C[C@H](O)CO1 [SKI-O-703, (S)-cyclopropyl(5-((4-(4-((4-hydroxyisoxazolidin-2-yl)methyl)-3-methyl-1H-pyrazol-1-yl)pyrimidin-2-yl)amino)-1-methyl-1H-indol-3-yl)methanone dimesylate] |  |  |  | significantly lowered | did not have the same effect, and even temporarily elevated the Ab titer | significantly reduced | significantly lowered | without significantly affecting body weights | significantly reduced spleen weights | dramatically attenuated | markedly reduced | not significantly altered | significantly less numerous | reduced in number | significantly less numerous | also reduced | reduced level | appeared not to interfere with BM hematopoiesis
